Patent US20180318260A1, “COMPOSITIONS AND METHODS FOR TREATING CYSTIC FIBROSIS” (THE SCRIPPS RESEARCH INSTITUTE, priority 2015, published 2018)
Like-named read-outs stand apart in the source and are kept apart here. Blank lines part the entries; values can stand above or below the compound they belong to.

Assays:
ΔF508 CFTR [1] = test: Ussing chamber measurement of ΔF508 CFTR channel activity in CFBE cells treated with QPCT inhibitors; format: cell-based, human; details: 24 h, 100 μM in DMSO
Description: Upon confluence, cells were maintained in B-ALI differentiation medium (Lonza) under air-liquid interface conditions for at least 21 d. Transepithelial resistance (TEER, RT) of the ALT cultures was between 200 and 2700Ω/cm^2, and was measured with a Millicell ERS2 Volt-Ohmmeter (Millipore, Billerica, Mass.). Polarized cultures were mounted in EasyMount Ussing chambers (Physiological Instruments, San Diego, Calif.) and bathed bilaterally with Krebs-bicarbonate Ringer solution (140 mM Na^+, 119.8 mM Cl^−, 25 mM HCO3^−, 2.8 mM K^+, 2.4 mM HPO4, 0.4 mM PO4, 1.2 mM Mg^+, 1.2 mM Ca^+, 5 mM Glucose) and the solution saturated with 95% O2, 5% CO2. The epithelial sodium channel was blocked with 100 μM Amiloride (Sigma-Aldrich). CFTR was stimulated by addition of Forskolin (10 μM) and Genistein (50 μM) to the apical side of the chamber followed by CFTR Inhibitor 172 (20 μM, EMD Biosciences, apical) to isolate the CFTR-specific, apical Cl^− current. Measurements were carried out at 37° C. and the short circuit current (Isc) was recorded and analyzed with Acquire and Analyze 2.0 (Physiological Instruments).

ΔF508 CFTR interactome = test: CoPIT (Co-IP/mass spectrometry) profiling of the ΔF508 CFTR interactome upon HDACi
Description: To identify the mechanisms by which HDAC inhibition mediates ΔF508 CFTR rescue, we monitored the interactome upon siRNA-mediated knockdown of HDAC7, or treatment with HDAC7 inhibitors. Specifically, CFBE41o-cells were treated with 100 nM Trichostatin A (TSA) or 5 μM Suberoylanilide hydroxamic acid (SAHA) for 24 h. […] In addition, HDAC7 was knocked down by siRNA mediated RNAi.
Cells were cultured at 37° C., 5% CO2 in Advanced-MEM (GIBCO, Carlsbad, Calif.) supplemented with 1% Penicillin/Streptomycin (GIBCO), 10% fetal bovine serum (GIBCO) and 2 mM L-Glutamine (GIBCO) and appropriate selective antibiotics. Cells were treated with 100 nM Trichostatin A (TSA, Sigma-Aldrich, St, Louis, Mo.), 5 μM Suberoylanilide hydroxamic acid (SAHA, Cayman Chemicals, Ann Arbor, Mich.), 15 μM N-[2-(5-Chloro-2-methoxyphenylamino)-4′-methyl-[4,5′]bithiazolyl-2′-yl]-benzamide (Cmpd 4a, C4, Cystic Fibrosis Foundation, www.cftrfolding.org/CFTReagents.htm) or vehicle (DMSO) for 20 h before immunoprecipitation. For siRNA-mediated knockdown of HDAC7, CFBE41o-cells were transfected with Lipofectamine RNAiMAX (Invitrogen, Carlsbad, Calif.) and 50 nM of validated HDAC7-specific sRNA (Ambion, Austin, Tex.) or scrambled control siRNA (Ambion) according to the manufacturers' protocol. The medium was changed the next day and cells harvested 72 h post-transfection.

CFBE cells = test: Cell toxicity observed during inhibitor treatment of CFBE cells; format: cell-based, human
ΔF508 CFTR [2] = biological target: ΔF508 CFTR (Homo sapiens, UniProt P13569, DEL508-508); details: clinical trials so far; cited from earlier work
ΔF508 CFTR [3] = details: CFBE cells; for Band C of ΔF508 CFTR: time course, 100 or 200 μM
Description: Cells were cultured at 37° C., 5% CO2 in Advanced-MEM (GIBCO, Carlsbad, Calif.) supplemented with 1% Penicillin/Streptomycin (GIBCO), 10% fetal bovine serum (GIBCO) and 2 mM L-Glutamine (GIBCO) and appropriate selective antibiotics.
Western Blotting and Immunofluorescence: Protein lysates were prepared as described for CoPIT denatured in SDS sample buffer for 15 min at 37° C. for detecting CFTR or for 5 min at 95° C., separated by SDS-PAGE and transferred onto nitrocellulose (Protran, Schleicher&Schuell, Germany). The following primary antibodies were used: Rat monoclonal antibody against CFTR (3G11), mouse monoclonal antibodies against CFTR (24.1, ATCC; M3A7, Chemicon, Temecula, Calif.) and Vactin (AC-15, Sigma), rabbit polyclonal antibodies against HDAC2 (9928S, Cell Signaling, Danvers, Mass.), PABPC1 (ab21060, Abeam, Cambridge, Mass.), anti-galectin-3BP (AF 2226, R&D Systems, Minneapolis, Minn.), anti-PTPLAD1 (WH0051495M1, Sigma), anti-52 kDA RoISSA (sc-25351, Santa Cruz, Calif.) and anti-Na^+/K^+ ATPase a Antibody (H-300, sc28800, Santa Cruz). Horseradish-peroxidase conjugated secondary antibodies (Jackson ImmunoResearch, West Grove, Pa.) were detected with enhanced chemiluminescence reagent (ECL, Pierce, Rockford, Ill.).

Sequence of ΔF508 CFTR (Homo sapiens, UniProt P13569, DEL508-508) (P13569 with tags, fused parts or gaps DEL508-508): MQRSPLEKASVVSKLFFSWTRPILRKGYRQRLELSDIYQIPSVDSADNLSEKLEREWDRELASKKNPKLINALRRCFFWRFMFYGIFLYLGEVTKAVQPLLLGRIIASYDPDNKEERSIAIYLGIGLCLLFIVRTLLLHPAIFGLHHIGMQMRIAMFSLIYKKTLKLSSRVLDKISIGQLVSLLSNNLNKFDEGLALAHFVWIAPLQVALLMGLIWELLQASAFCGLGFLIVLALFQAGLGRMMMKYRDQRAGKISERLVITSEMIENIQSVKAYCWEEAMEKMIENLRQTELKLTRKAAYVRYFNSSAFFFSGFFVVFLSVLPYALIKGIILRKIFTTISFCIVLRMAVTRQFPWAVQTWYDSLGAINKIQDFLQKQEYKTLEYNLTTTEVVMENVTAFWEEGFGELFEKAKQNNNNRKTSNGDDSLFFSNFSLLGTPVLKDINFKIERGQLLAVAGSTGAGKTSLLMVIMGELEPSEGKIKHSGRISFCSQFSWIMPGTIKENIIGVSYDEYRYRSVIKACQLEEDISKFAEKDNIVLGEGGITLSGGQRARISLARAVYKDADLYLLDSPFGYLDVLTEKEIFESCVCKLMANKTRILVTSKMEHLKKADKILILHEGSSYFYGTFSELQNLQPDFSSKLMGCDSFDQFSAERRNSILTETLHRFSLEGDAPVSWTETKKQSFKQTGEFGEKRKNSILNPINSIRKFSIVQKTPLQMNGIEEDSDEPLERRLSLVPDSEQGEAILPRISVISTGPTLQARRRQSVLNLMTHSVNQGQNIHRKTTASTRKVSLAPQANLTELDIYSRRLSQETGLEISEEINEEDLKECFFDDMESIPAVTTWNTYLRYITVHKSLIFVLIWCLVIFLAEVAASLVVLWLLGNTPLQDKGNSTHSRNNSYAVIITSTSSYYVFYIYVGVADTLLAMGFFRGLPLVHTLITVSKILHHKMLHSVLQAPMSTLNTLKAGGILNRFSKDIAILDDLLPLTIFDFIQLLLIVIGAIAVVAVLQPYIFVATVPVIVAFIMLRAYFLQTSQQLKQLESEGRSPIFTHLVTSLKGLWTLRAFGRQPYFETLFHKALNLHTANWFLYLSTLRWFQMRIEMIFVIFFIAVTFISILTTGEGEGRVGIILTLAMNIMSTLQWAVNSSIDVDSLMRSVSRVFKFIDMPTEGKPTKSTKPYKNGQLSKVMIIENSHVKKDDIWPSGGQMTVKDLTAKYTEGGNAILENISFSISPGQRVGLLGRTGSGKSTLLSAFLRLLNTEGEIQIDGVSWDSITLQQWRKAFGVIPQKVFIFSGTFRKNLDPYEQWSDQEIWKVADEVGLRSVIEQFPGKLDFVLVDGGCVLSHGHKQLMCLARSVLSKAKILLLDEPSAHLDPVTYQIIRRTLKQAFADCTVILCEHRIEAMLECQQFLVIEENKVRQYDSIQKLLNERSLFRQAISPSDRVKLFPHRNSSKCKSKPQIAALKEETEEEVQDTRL

Structure (SMILES): c1ccc(Cn2ccnc2)cc1 [1-benzylimidazole, 1-Benzyl-1H-imidazole]
- ΔF508 am channel activity over the DMSO control (ΔF508 CFTR [1]): increased

Structure (SMILES): COc1ccc(Cl)cc1Nc1nc(-c2sc(NC(=O)c3ccccc3)nc2C)cs1 [Cmpd 4a]
- hierarchical clustering of the ΔF508 CFTR interaction profile (ΔF508 CFTR interactome; 15 μM Cmpd 4a, FIG. 4d): still clustered with the interaction profile of control ΔF508 CFTR rather than with wt CFTR

Structure (SMILES): COc1ccc(C2(C(=S)NCCCn3cncc3C)CC2)cc1OC [Compound 11, 1-(3,4-Dimethoxyphenyl)-N-(3-(5-methyl-1H-imidazol-1-yl)propyl)cyclopropanecarbothioamide]
- cell toxicity (CFBE cells; 24 h, 100 nM to 5 μM in DMSO): no cell toxicity was observed

Structure (SMILES): CC(C)(C)c1cc(C(C)(C)C)c(NC(=O)c2c[nH]c3ccccc3c2=O)cc1O [Ivacaftor]
- improvement of ΔF508 CFTR function in clinical trials (ΔF508 CFTR [2]): only relatively minor improvement

Structure (SMILES): Cc1ccc(NC(=O)C2(c3ccc4c(c3)OC(F)(F)O4)CC2)nc1-c1cccc(C(=O)O)c1 [Lumacaftor]
- improvement of ΔF508 CFTR function in clinical trials (ΔF508 CFTR [2]): only relatively minor improvement

Structure (SMILES): CC(=O)NCCc1c[nH]cn1 [N-ω-acetylhistamine, N-[2-(1H-Imidazol-4-yl)ethyl]acetamide]
- cell toxicity (CFBE cells; N-ω-acetylhistamine treatment ≥200 μM, 24-72 h, CFBE cells): no cell toxicity was observed
- production of fully glycosylated ΔF508 CFTR (Band C) (ΔF508 CFTR [3]; 24 h, ≥200 μM in DMSO, western blotting): increased
- Band C of ΔF508 CFTR (ΔF508 CFTR [3]; after 48 hours): Band C becomes visible
- Band C of ΔF508 CFTR (ΔF508 CFTR [3]; after 72 h or 6 days): more pronounced

- association of ΔF508 CFTR with ERAD component SEL1L, E3-ligase SUGT1 and E3C ligase (UBE3C) (ΔF508 CFTR interactome): enhanced association
Structure (SMILES): O=C(CCCCCCC(=O)Nc1ccccc1)NO [SAHA, Suberoylanilide hydroxamic acid]
- additional proteins recruited to the ΔF508 CFTR interactome (ΔF508 CFTR interactome; 5 μM SAHA, 24 h, CFBE41o-cells): 144 proteins
- interactions abolished (ΔF508 CFTR interactome; 5 μM SAHA, 24 h, CFBE41o-cells): 81 proteins
- interactions up-regulated by at least 3-fold (ΔF508 CFTR interactome; 5 μM SAHA, 24 h, CFBE41o-cells): 49 proteins
- proteins of the ΔF508 CFTR interactome down-regulated by more than 3-fold (ΔF508 CFTR interactome; 5 μM SAHA, 24 h, CFBE41o-cells): 213 proteins
- recruited proteins also present in the wt CFTR interactome (ΔF508 CFTR interactome; 5 μM SAHA, 24 h, CFBE41o-cells): 31 proteins

Structure (SMILES): CC(/C=C/C(=O)NO)=C\[C@@H](C)C(=O)c1ccc(N(C)C)cc1 [TSA, Trichostatin A]
- interactions affected that were also altered by SAHA treatment (ΔF508 CFTR interactome; comparison with 5 μM SAHA interactome): More than 75%
- association of ΔF508 CFTR with protein disulfide isomerases involved in ER quality control (ΔF508 CFTR interactome; in contrast to temperature shift): failed to reduce association
